Test results from patent publication USRE47193E1, “Selectively substituted quinoline compounds” (EISAI R&D MANAGEMENT CO., LTD., priority 2013, dated 2019).

Key:
Human TLR7/8 = experiment: Human PBMC cell-based assay, TLR7/8 stimulus (RNA-Ig), cytokine ELISA; settings: primary human PBMC assay, TLR7/8 potency; ligand not given; read-out: Human PBMCs IC50
Outline: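 The agonist was RNA-Ig, a U1 snRNA-derived 26-mer RNA (2.5 μM) complexed with RNA-cross-reacting anti-ssDNA mAb (1:25 or 1 ug/ml), added after 30 min compound pre-incubation (0.1% DMSO). Density-gradient PBMC from healthy donors, 2×10^5/well, were stimulated 20 h at 37 °C; cytokines quantified by ELISA.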

mouse TLR7 = biological target: T1, mouse TLR7 (Mus musculus, UniProt P58681); experiment: Short-term in vivo (STIV) assay: oral dosing, R848 s.c., plasma IL-6; design: female BALB/c mice (Jackson Labs, Bar Harbor, Me.) were dosed by oral gavage; tissue Jackson Labs; host or cells: living female BALB/c mice; plasma IL-6 after s.c. R848
T1 sequence (P58681 27-1050): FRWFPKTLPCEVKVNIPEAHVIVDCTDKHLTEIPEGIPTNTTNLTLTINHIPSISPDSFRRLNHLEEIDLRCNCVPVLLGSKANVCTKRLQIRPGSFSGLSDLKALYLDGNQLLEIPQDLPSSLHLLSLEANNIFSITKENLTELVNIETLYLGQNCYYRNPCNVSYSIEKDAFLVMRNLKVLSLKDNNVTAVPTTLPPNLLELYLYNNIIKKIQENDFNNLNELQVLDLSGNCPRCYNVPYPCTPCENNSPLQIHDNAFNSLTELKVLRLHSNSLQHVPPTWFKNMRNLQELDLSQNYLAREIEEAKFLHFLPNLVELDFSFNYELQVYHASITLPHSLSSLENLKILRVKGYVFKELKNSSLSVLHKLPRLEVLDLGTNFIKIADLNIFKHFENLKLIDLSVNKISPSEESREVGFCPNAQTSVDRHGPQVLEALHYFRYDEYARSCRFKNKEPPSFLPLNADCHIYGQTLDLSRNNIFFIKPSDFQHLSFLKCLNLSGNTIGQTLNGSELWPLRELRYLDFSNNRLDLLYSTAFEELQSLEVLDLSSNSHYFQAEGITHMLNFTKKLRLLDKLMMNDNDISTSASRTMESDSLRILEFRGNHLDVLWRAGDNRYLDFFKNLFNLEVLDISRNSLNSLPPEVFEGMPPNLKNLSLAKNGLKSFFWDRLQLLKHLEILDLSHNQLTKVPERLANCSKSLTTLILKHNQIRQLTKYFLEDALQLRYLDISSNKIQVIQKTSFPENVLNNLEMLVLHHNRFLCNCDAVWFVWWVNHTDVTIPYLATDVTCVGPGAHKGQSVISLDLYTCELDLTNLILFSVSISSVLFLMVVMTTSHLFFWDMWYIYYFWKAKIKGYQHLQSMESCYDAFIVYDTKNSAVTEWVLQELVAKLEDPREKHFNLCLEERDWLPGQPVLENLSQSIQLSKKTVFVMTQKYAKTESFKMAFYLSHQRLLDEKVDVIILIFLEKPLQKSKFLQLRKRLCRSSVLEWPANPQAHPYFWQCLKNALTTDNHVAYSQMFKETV
Outline: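 Female BALB/c mice (6–8 weeks) dosed orally with compound in 0.5% aqueous methyl-cellulose at 33, 100 or 300 mg/kg; at various times afterwards given 15 ug R848 s.c. to stimulate TLR7. Plasma IL-6 measured by ELISA to gauge potency and duration of action.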

Mouse Splenocytes = experiment: Mouse spleen cell-based assay (R848, IL-6 ELISA); settings: BALB/c spleen cells, 370 nM R848
Description: Mouse Spleen cell-based assay. Spleens were harvested from female BALB/c mice (Jackson Labs, Bar Harbor, Me.) euthanized by CO2. A single cell suspension was obtained by passing spleens through a 40 μm an nylon cell strainer. Cells were washed twice with 50 ml PBS (Mediatech, Inc., Manassas, Va.) and red blood cells were lysed in 5 ml RBC Lysis buffer (eBioscience, Inc., San Diego, Calif.) for 5 minutes at room temperature. Cells were washed twice more in PBS and finally resuspended in supplemented RPMI-1640 at 2.5×10^6 cells/ml. Cells were plated at 100 μl/well (2.5×10^5 cells/well) in 96-well tissue culture treated plates (Falcon). Serial dilutions of compounds solubilized in 100% DMSO were added in triplicate to cells to yield a final concentration of 0.1% DMSO. Cells were incubated with compound for 30 minutes at 37° C., 5% CO2 before adding 100 μl/well of 740 nM R848 (Resiquimod; GLSynthesis, Worcester, Mass.) in complete media for a final concentration of 370 nM R848. Cells were incubated for 20 hours at 37° C., 5% CO2. Culture supernatants were collected, and levels of IL-6 were assessed by standard ELISA procedure according to the manufacturer's recommended protocol (BD Biosciences, Inc., San Diego, Calif.).

human TLR8 = biological target: T2, human TLR8 (Homo sapiens, UniProt Q9NR97); experiment: HEK-293 human TLR8 NF-kappaB luciferase reporter assay (CL097); format: cell-based; settings: HEK-293 assay format; read-out: HEK/hTLR8 IC50
T2 construct: host or cells: HEK-293, then stably transfected with pNiFty2(NF-kappaB)-luciferase reporter
T2 sequence (Q9NR97 27-1041): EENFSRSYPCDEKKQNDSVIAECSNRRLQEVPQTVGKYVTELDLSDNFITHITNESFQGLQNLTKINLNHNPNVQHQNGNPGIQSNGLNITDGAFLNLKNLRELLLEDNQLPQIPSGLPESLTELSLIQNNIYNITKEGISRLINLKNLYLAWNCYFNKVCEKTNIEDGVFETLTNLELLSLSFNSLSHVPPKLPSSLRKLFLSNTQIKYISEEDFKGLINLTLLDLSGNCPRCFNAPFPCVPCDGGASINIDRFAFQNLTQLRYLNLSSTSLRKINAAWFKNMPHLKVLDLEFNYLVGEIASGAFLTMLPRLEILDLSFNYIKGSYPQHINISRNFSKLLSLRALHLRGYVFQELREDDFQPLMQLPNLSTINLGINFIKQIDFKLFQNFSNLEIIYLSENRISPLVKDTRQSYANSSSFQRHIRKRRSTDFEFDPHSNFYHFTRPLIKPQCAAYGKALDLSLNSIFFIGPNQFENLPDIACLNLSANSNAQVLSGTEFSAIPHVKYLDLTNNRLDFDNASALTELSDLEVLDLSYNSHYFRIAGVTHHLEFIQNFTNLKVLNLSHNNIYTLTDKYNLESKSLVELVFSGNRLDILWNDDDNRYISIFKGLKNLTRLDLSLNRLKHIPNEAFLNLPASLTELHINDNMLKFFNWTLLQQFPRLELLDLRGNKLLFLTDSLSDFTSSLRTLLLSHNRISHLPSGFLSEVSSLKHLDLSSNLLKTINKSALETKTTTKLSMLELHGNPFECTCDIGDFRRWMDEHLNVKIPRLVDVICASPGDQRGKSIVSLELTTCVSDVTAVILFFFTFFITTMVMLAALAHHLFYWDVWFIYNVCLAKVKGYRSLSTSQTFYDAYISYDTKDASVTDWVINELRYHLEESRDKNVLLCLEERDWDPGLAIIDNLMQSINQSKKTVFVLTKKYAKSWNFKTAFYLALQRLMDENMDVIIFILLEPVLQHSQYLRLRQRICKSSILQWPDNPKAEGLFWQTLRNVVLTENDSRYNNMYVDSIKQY
Description: Effects on mouse TLR7 were also compared. Cells were stimulated overnight with TLR7/8 agonist CL097 at pre-determined ED70-80: 3 ug/ml for HEK-hTLR7, 1.5 ug/ml for HEK-mTLR7 and 12 ug/ml for HEK-hTLR8, before reading luminescence intensity. Three tests were performed and IC50 value was determined using Graphpad Prism 6 nonlinear regression curve fit.
HEK-293 cells (ATCC) were engineered to stably express a NF-kappaB transcription factor inducible E-selectin (ELAM-1) luciferase reporter derived from the plasmid pGL3 (Promega) containing base pairs −2241 bp to −254 bp from the promoter of the human E-selectin gene (Accession No. NM_000450). These cells were then subsequently engineered to stably and individually express human TLR4, TLR7 or TLR9 full-length ORF cDNAs. Human TLR4 cDNA (Accession No. NM_138554) was cloned into pcDNA 3.0 expression vector (Invitrogen). TLR4 transfected cells were also engineered to express human MD-2 co-receptor [MD-2 cDNA (Accession No. NM_015364) was cloned into the pEF-BOS vector] and were supplemented with 10 nM soluble CD14 (R&D Systems) in the media to optimize LPS responsiveness. Human TLR9 cDNA (Accession No. NM_017442) was cloned into the pBluescript II KS vector (Agilent). Human TLR7 cDNA (Accession No. NM_016562) was obtained from OriGene. HEK-293 cells stably expressing human TLR8 (Accession No. NM_138636) or mouse TLR7 (Accession No. NM_133211) were purchased from InvivoGen and were then stably transfected with pNiFty2(NF-kappaB)-luciferase reporter plasmid (InvivoGen). Each cell type was plated in Dulbecco's modified Eagle's medium (DMEM) containing 10% fetal bovine serum (FBS) at a density of 2.22×10^5 cells/ml into a 384-well plate and incubated for 2 days at 37° C., 5% CO2. Varying concentrations of antagonist compounds were then added. Cells were then incubated for another 30 minutes before adding the appropriate TLR agonist as follows (final concentrations indicated): lipopolysaccharide (LPS; Sigma) at 10 ng/ml for TLR4, CL097 (InvivoGen) at 3 ug/ml for human TLR7 and TLR8 and mouse TLR7, and CvG-2006-2A [sequence: […] (SEQ ID NO: 1) with phosphorothioate backbone, synthesized by Sigma-Aldrich] at 0.6 uM for TLR9.

Compound | IC50 (Human TLR7/8) | IC50 (Mouse Splenocytes; Mus musculus, Splenocyte) | IC50 (human TLR8) | other results
CC1CN(c2ccc(C#N)c3ncccc23)CC(CN2CCNCC2C)O1 (stereo not shown) [ER-887268] | 5 nM | 2120 nM | – | % Suppression vs. Vehicle (mouse TLR7; 6 h, 11 mg/kg): 80%; % Suppression vs. Vehicle (mouse TLR7; 6 h, 33 mg/kg): 98%; % Suppression vs. Vehicle (mouse TLR7; 6 h, 100 mg/kg): 99%; % Suppression vs. Vehicle (mouse TLR7; 19 h, 11 mg/kg): 25%; % Suppression vs. Vehicle (mouse TLR7; 19 h, 33 mg/kg): 63%; % Suppression vs. Vehicle (mouse TLR7; 19 h, 100 mg/kg): 95%
C[C@@H]1CN(c2ccc(C#N)c3ncccc23)C[C@H](CNC2CCC2)O1 [ER-887443] | 32 nM | – | 138 nM | –
C[C@@H]1CN(c2ccc(C#N)c3ncccc23)C[C@H](CNC2CCC(O)CC2)O1 (stereo partly shown) [ER-887526] | 50 nM | – | 122 nM | –
C[C@@H]1CN(c2ccc(C#N)c3ncccc23)C[C@H](CNc2ccc(-c3ccccc3)cn2)O1 [ER-887538] | 48 nM | – | 85 nM | –
C[C@@H]1CN(c2ccc(C#N)c3ncccc23)C[C@H](CNc2ncccc2-c2ccccc2)O1 [ER-887540] | 1 nM | – | 3 nM | –
CCOc1cccnc1NC[C@H]1CN(c2ccc(C#N)c3ncccc23)C[C@@H](C)O1 [ER-887587] | 1 nM | – | 1.8 nM | –
C[C@@H]1CN(c2ccc(C#N)c3ncccc23)C[C@H](CNc2ccnc(-c3ccccc3)c2)O1 [ER-887588] | 1 nM | – | 0.5 nM | –
C[C@@H]1CN(c2ccc(C#N)c3ncccc23)C[C@H](CN2CCC(N)CC2)O1 [ER-888070] | 3 nM | 76 nM | – | % Suppression vs. Vehicle (mouse TLR7; 6 h, 33 mg/kg): 88%; % Suppression vs. Vehicle (mouse TLR7; 6 h, 100 mg/kg): 100%; % Suppression vs. Vehicle (mouse TLR7; 6 h, 300 mg/kg): 100%; % Suppression vs. Vehicle (mouse TLR7; 19 h, 33 mg/kg): 70%; % Suppression vs. Vehicle (mouse TLR7; 19 h, 100 mg/kg): 90%; % Suppression vs. Vehicle (mouse TLR7; 19 h, 300 mg/kg): 99%
C[C@@H]1CN(c2ccc(C#N)c3ncccc23)C[C@H](CN2CCCN(C)CC2)O1 [ER-889601] | – | – | – | % Suppression vs. Vehicle (mouse TLR7; 3 h, 100 mg/kg): 96%; % Suppression vs. Vehicle (mouse TLR7; 6 h, 33 mg/kg): 95%; % Suppression vs. Vehicle (mouse TLR7; 6 h, 100 mg/kg): 90%; % Suppression vs. Vehicle (mouse TLR7; 19 h, 100 mg/kg): 96%; IC50 (Mouse Splenocytes): 179 nM
CC1CN(c2ccc(C#N)c3ncccc23)CC(CN2CCC(N3CCCCC3)C2)O1.Cl.Cl (stereo not shown) [ER-890311] | – | – | – | % Suppression vs. Vehicle (mouse TLR7; 3 h, 33 mg/kg): 88%; % Suppression vs. Vehicle (mouse TLR7; 19 h, 3.67 mg/kg): 0%; % Suppression vs. Vehicle (mouse TLR7; 19 h, 11 mg/kg): 0%; % Suppression vs. Vehicle (mouse TLR7; 19 h, 33 mg/kg): 0%; IC50 (Mouse Splenocytes): 428 nM
C[C@@H]1CN(c2ccc(C#N)c3ncccc23)C[C@H](CN2CCN(C)[C@@H](C)C2)O1 [ER-890831] | 1 nM | – | – | IC50 (Mouse Splenocytes): 170 nM
CC1CN(c2ccc(C#N)c3ncccc23)CC(CN2CCC(NS(C)(=O)=O)CC2)O1 (stereo not shown) [ER-893948] | 150 nM | 420 nM | – | –
CC(=O)NC1CN(C[C@H]2CN(c3ccc(C#N)c4ncccc34)C[C@@H](C)O2)C1 [ER-894152] | 175 nM | 660 nM | – | –
C[C@@H]1CN(c2ccc(C#N)c3ncccc23)C[C@H](CN2CC(NC(=O)c3ccccc3)C2)O1 [ER-894594] | 87 nM | – | 116 nM | –
C[C@@H]1CN(c2ccc(C#N)c3ncccc23)C[C@H](CN2CCNC(C)(C)C2)O1 [ER-894655] | 5 nM | 84 nM | – | –
CC1CN(c2ccc(C#N)c3ncccc23)CC(CN2CCN(C)C(C)(C)C2)O1 (stereo not shown) [ER-894656] | 7 nM | 23 nM | – | –
CC1CN(c2ccc(C#N)c3ncccc23)CC(COc2ncccn2)O1 (stereo not shown) [ER-895325] | 26 nM | 120 nM | – | –
